According to ChEMBL document CHEMBL1201862, “PubChem BioAssay data set” (2004):
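Results reflect a 48-hour exposure of cells in 96-well plates to compound at five concentrations. GI50: concentration for 50% inhibition of growth.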 Active and inactive are the calls of the source. Cut-off read from the data, not from the text of the source: active = GI50 up to about 1.1 µM and inactive = higher.

Experiments:
Assay in all cases: NCI anticancer screen, dose series, 48 h
HT-29 = system: HT-29
U-251 = system: U-251
LXFL 529 = system: LXFL 529
NCI-H522 = system: NCI-H522
SF-268 = system: SF-268
UACC-62 = system: UACC-62
SK-OV-3 = system: SK-OV-3
HL-60 = system: HL-60
HCT-15 = system: HCT-15
EKVX = system: EKVX
SNB-75 = system: SNB-75
SNB-19 = system: SNB-19
M14 = system: M14
786-0 = system: 786-0
CCRF-CEM = system: CCRF-CEM
UO-31 = system: UO-31
SR = system: SR
ACHN = system: ACHN
HCT-116 = system: HCT-116
SNB-78 = system: SNB-78
HOP-62 = system: HOP-62
DMS-273 = system: DMS-273
K562 = system: K562
MOLT-4 = system: MOLT-4
A498 = system: A498
SK-MEL-5 = system: SK-MEL-5
LOX IMVI = system: LOX IMVI
Malme-3M = system: Malme-3M
SF-295 = system: SF-295
XF498 = system: XF498
IGROV-1 = system: IGROV-1
OVCAR-8 = system: OVCAR-8
A549 = system: A549
SN12C = system: SN12C
KM12 = system: KM12
SW-620 = system: SW-620
OVCAR-3 = system: OVCAR-3
SK-MEL-2 = system: SK-MEL-2
NCI-H23 = system: NCI-H23
NCI-H226 = system: NCI-H226
COLO 205 = system: COLO 205
OVCAR-4 = system: OVCAR-4
TK-10 = system: TK-10
M19-MEL = system: M19-MEL
HOP-18 = system: HOP-18
SF-539 = system: SF-539
RPMI-8226 = system: RPMI-8226
DLD-1 = system: DLD-1
CAKI-1 = system: CAKI-1
UACC-257 = system: UACC-257
HCC 2998 = system: HCC 2998
HOP-92 = system: HOP-92
RXF 393 = system: RXF 393
KM-20L2 = system: KM-20L2
OVCAR-5 = system: OVCAR-5
NCI-H460 = system: NCI-H460
SK-MEL-28 = system: SK-MEL-28
DMS-114 = system: DMS-114

O=C(/C(=C\c1ccccc1)CN1CCOCC1)c1ccc(Br)cc1
GI50 (HT-29): 2.05 µM (inactive)
GI50 (U-251): 2.51 µM (inactive)
GI50 (LXFL 529): 1.28 µM (inactive)
GI50 (NCI-H522): 1.28 µM (inactive)
GI50 (SF-268): 3.63 µM (inactive)
GI50 (UACC-62): 1.55 µM (inactive)
GI50 (SK-OV-3): 3.61 µM (inactive)
GI50 (HL-60): 1.5 µM (inactive)
GI50 (HCT-15): 1.93 µM
GI50 (EKVX): 3.06 µM (inactive)
GI50 (SNB-75): 10.8 µM (inactive)
GI50 (SNB-19): 5.79 µM (inactive)
GI50 (M14): 1.78 µM (inactive)
GI50 (786-0): 1.57 µM (inactive)
GI50 (CCRF-CEM): 0.714 µM (active)
GI50 (UO-31): 1.8 µM (inactive)
GI50 (SR): 1.16 µM (inactive)
GI50 (ACHN): 1.75 µM (inactive)
GI50 (HCT-116): 1.72 µM (inactive)
GI50 (SNB-78): 5.61 µM (inactive)
GI50 (HOP-62): 6.27 µM (inactive)
GI50 (DMS-273): 2.88 µM (inactive)
GI50 (K562): 1.15 µM (inactive)
GI50 (MOLT-4): 2.33 µM (inactive)
GI50 (A498): 6.12 µM (inactive)
GI50 (SK-MEL-5): 1.91 µM (inactive)
GI50 (LOX IMVI): 1.65 µM (inactive)
GI50 (Malme-3M): 1.78 µM (inactive)
GI50 (SF-295): 5.97 µM (inactive)
GI50 (XF498): 4.89 µM (inactive)
GI50 (IGROV-1): 4.97 µM (inactive)
GI50 (OVCAR-8): 1.61 µM (inactive)
GI50 (A549): 6.64 µM (inactive)
GI50 (SN12C): 2.06 µM (inactive)
GI50 (KM12): 1.87 µM (inactive)
GI50 (SW-620): 1.18 µM (inactive)
GI50 (OVCAR-3): 2.44 µM (inactive)
GI50 (SK-MEL-2): 1.92 µM (inactive)
GI50 (NCI-H23): 3.24 µM (inactive)
GI50 (NCI-H226): 6.68 µM (inactive)
GI50 (COLO 205): 3.25 µM (inactive)
GI50 (OVCAR-4): 2.77 µM (inactive)
GI50 (TK-10): 5.37 µM (inactive)
GI50 (M19-MEL): 1.73 µM (inactive)
GI50 (HOP-18): 1.81 µM (inactive)
GI50 (SF-539): 2.12 µM (inactive)
GI50 (RPMI-8226): 2.43 µM (inactive)
GI50 (DLD-1): 1.51 µM (inactive)
GI50 (CAKI-1): 1.88 µM (inactive)
GI50 (UACC-257): 2.59 µM (inactive)
GI50 (HCC 2998): 16 µM (inactive)
GI50 (HOP-92): 5.47 µM (inactive)
GI50 (RXF 393): 2.51 µM (inactive)
GI50 (KM-20L2): 2.65 µM (inactive)
GI50 (OVCAR-5): 3.48 µM (inactive)
GI50 (NCI-H460): 3.01 µM (inactive)
GI50 (SK-MEL-28): 1.76 µM (inactive)
GI50 (DMS-114): 1.78 µM (inactive)

CC(Oc1ccc2c(=O)cc(-c3ccccc3)oc2c1)C(=O)O (stereo unspecified)
GI50 (HT-29): > 100 µM (inactive)
GI50 (U-251): > 100 µM (inactive)
GI50 (LXFL 529): > 100 µM (inactive)
GI50 (NCI-H522): > 100 µM (inactive)
GI50 (SF-268): > 100 µM (inactive)
GI50 (UACC-62): > 100 µM (inactive)
GI50 (SK-OV-3): > 100 µM (inactive)
GI50 (HL-60): > 100 µM (inactive)
GI50 (EKVX): > 100 µM (inactive)
GI50 (SNB-75): > 100 µM (inactive)
GI50 (SNB-19): > 100 µM (inactive)
GI50 (M14): > 100 µM (inactive)
GI50 (786-0): > 100 µM (inactive)
GI50 (CCRF-CEM): > 100 µM (inactive)
GI50 (UO-31): > 100 µM (inactive)
GI50 (SR): > 100 µM (inactive)
GI50 (ACHN): > 100 µM (inactive)
GI50 (HCT-116): > 100 µM (inactive)
GI50 (SNB-78): > 100 µM (inactive)
GI50 (HOP-62): > 100 µM (inactive)
GI50 (K562): > 100 µM (inactive)
GI50 (MOLT-4): > 100 µM (inactive)
GI50 (A498): > 100 µM (inactive)
GI50 (SK-MEL-5): > 100 µM (inactive)
GI50 (LOX IMVI): > 100 µM (inactive)
GI50 (Malme-3M): > 100 µM (inactive)
GI50 (SF-295): > 100 µM (inactive)
GI50 (XF498): > 100 µM (inactive)
GI50 (IGROV-1): > 100 µM (inactive)
GI50 (OVCAR-8): > 100 µM (inactive)
GI50 (A549): > 100 µM (inactive)
GI50 (SN12C): > 100 µM (inactive)
GI50 (KM12): > 100 µM (inactive)
GI50 (SW-620): > 100 µM (inactive)
GI50 (OVCAR-3): > 100 µM (inactive)
GI50 (NCI-H23): > 100 µM (inactive)
GI50 (NCI-H226): > 100 µM (inactive)
GI50 (COLO 205): > 100 µM (inactive)
GI50 (OVCAR-4): > 100 µM (inactive)
GI50 (TK-10): > 100 µM (inactive)
GI50 (M19-MEL): > 100 µM (inactive)
GI50 (HOP-18): > 100 µM (inactive)
GI50 (SF-539): > 100 µM (inactive)
GI50 (DLD-1): > 100 µM (inactive)
GI50 (CAKI-1): > 100 µM (inactive)
GI50 (UACC-257): > 100 µM (inactive)
GI50 (HCC 2998): > 100 µM (inactive)
GI50 (HOP-92): > 100 µM (inactive)
GI50 (RXF 393): > 100 µM (inactive)
GI50 (KM-20L2): > 100 µM (inactive)
GI50 (NCI-H460): > 100 µM (inactive)
GI50 (SK-MEL-28): > 100 µM (inactive)
GI50 (DMS-114): > 100 µM (inactive)

CCOc1ccc(NC(=O)CCC(=O)NN)cc1
GI50 (HT-29): > 100 µM (inactive)
GI50 (U-251): > 100 µM (inactive)
GI50 (LXFL 529): > 100 µM (inactive)
GI50 (NCI-H522): > 100 µM (inactive)
GI50 (SF-268): > 100 µM (inactive)
GI50 (HL-60): > 100 µM (inactive)
GI50 (HCT-15): 68.7 µM
GI50 (EKVX): > 100 µM (inactive)
GI50 (SNB-75): > 100 µM (inactive)
GI50 (SNB-19): > 100 µM (inactive)
GI50 (M14): > 100 µM (inactive)
GI50 (786-0): > 100 µM (inactive)
GI50 (CCRF-CEM): > 100 µM (inactive)
GI50 (UO-31): > 100 µM (inactive)
GI50 (ACHN): > 100 µM (inactive)
GI50 (SNB-78): > 100 µM (inactive)
GI50 (HOP-62): > 100 µM (inactive)
GI50 (DMS-273): > 100 µM (inactive)
GI50 (K562): > 100 µM (inactive)
GI50 (MOLT-4): > 100 µM (inactive)
GI50 (SK-MEL-5): > 100 µM (inactive)
GI50 (LOX IMVI): > 100 µM (inactive)
GI50 (Malme-3M): > 100 µM (inactive)
GI50 (SF-295): > 100 µM (inactive)
GI50 (XF498): 31.7 µM (inactive)
GI50 (OVCAR-8): > 100 µM (inactive)
GI50 (A549): > 100 µM (inactive)
GI50 (SN12C): 94 µM (inactive)
GI50 (KM12): > 100 µM (inactive)
GI50 (SW-620): > 100 µM (inactive)
GI50 (OVCAR-3): > 100 µM (inactive)
GI50 (SK-MEL-2): > 100 µM (inactive)
GI50 (NCI-H23): > 100 µM (inactive)
GI50 (NCI-H226): > 100 µM (inactive)
GI50 (COLO 205): > 100 µM (inactive)
GI50 (OVCAR-4): > 100 µM (inactive)
GI50 (TK-10): > 100 µM (inactive)
GI50 (HOP-18): > 100 µM (inactive)
GI50 (RPMI-8226): > 100 µM (inactive)
GI50 (DLD-1): > 100 µM (inactive)
GI50 (CAKI-1): > 100 µM (inactive)
GI50 (UACC-257): > 100 µM (inactive)
GI50 (HCC 2998): > 100 µM (inactive)
GI50 (HOP-92): > 100 µM (inactive)
GI50 (RXF 393): > 100 µM (inactive)
GI50 (KM-20L2): > 100 µM (inactive)
GI50 (OVCAR-5): > 100 µM (inactive)
GI50 (NCI-H460): > 100 µM (inactive)
GI50 (SK-MEL-28): > 100 µM (inactive)
GI50 (DMS-114): > 100 µM (inactive)
